# Molecular target: T1, Nav 1.7 (Homo sapiens, UniProt Q15858)
# T1 construct: expressed in transfected cells
# Experiment: Whole-cell voltage clamp electrophysiology, automated patch clamp (marker c in Table of Examples)
# Format: cell-based
# Conditions: marker c = Automated patch clamp data; read-out: Nav 1.7 activity
# Procedure, shortened: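 A voltage protocol weighted toward inactivated-state block was used to test compounds on stably expressing cells, with pulses from −65 mV holding to −10 mV test and −100 mV. Currents came from whole-cell automated patch-clamp recordings, either IonWorks Quattro or other automated instruments, usually in perforated-patch mode.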
# T1 sequence (Q15858 whole entry): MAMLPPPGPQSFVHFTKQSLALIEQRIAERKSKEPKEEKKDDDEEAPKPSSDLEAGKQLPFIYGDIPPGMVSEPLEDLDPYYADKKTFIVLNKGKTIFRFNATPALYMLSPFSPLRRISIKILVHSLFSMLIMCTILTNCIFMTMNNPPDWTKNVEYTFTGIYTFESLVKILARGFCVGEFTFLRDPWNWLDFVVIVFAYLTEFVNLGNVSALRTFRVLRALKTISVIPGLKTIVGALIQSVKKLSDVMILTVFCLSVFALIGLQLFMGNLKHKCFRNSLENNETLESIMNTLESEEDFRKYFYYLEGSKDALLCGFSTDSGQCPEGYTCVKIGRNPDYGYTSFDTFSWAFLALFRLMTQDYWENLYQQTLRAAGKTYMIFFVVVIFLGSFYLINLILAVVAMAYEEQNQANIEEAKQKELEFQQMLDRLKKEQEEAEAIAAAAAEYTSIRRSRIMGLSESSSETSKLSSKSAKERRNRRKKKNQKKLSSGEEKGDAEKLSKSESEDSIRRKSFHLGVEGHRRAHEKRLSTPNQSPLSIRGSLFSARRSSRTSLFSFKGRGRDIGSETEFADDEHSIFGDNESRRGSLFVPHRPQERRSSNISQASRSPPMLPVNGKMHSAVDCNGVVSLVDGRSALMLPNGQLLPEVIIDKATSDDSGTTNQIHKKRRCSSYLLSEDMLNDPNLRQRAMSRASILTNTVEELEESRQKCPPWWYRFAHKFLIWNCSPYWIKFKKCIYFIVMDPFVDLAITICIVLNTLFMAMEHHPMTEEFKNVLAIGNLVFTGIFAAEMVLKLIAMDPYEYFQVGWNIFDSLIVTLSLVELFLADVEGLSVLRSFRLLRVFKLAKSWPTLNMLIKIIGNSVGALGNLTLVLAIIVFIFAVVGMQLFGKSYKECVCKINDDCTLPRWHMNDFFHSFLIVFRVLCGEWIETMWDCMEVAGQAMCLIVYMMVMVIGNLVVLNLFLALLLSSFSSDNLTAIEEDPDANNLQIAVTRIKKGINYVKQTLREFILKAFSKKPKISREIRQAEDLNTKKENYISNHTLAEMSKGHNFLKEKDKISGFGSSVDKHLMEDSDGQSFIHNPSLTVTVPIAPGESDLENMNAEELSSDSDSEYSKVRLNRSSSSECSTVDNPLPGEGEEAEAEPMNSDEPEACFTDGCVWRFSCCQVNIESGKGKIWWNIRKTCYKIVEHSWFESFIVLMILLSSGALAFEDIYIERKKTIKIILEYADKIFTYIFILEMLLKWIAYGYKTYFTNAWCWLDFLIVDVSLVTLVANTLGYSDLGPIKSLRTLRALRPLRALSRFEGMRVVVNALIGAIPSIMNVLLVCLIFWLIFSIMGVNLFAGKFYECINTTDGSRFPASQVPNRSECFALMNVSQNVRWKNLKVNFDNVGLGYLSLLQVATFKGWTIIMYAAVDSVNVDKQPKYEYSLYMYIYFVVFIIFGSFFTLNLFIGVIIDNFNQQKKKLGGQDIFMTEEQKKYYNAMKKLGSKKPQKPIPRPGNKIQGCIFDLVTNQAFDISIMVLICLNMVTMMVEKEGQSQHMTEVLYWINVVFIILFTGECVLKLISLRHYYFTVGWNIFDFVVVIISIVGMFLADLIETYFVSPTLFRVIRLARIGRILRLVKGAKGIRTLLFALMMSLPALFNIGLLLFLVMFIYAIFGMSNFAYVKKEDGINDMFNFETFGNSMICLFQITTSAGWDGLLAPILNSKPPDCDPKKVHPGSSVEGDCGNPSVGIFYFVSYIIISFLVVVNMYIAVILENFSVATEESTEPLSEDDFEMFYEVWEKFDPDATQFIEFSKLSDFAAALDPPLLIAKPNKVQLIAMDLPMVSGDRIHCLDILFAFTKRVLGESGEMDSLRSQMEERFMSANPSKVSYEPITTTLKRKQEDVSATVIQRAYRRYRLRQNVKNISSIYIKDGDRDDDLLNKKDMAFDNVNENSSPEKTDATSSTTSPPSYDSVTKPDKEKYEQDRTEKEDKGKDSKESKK
row,SMILES,IC50 [nM]
1,"CC(=O)N1CC(c2nc(-c3nc(N)nc(N(C)c4ccccc4)n3)no2)C1 [Example 384, 1-[3-(3-{4-Amino-6-[methyl(phenyl)amino]-1,3,5-triazin-2-yl}-1,2,4-oxadiazol-5-yl)azetidin-1-yl]ethan-1-one]",> 8590
2,"CN(c1ccccc1)c1nc(N)nc(-c2noc(C3CN(CCC(F)(F)F)C3)n2)n1 [Example 385, 2-N-methyl-2-N-phenyl-6-{5-[1-(3,3,3-trifluoropropyl)azetidin-3-yl]-1,2,4-oxadiazol-3-yl}-1,3,5-triazine-2,4-diamine]",2210
3,"CN(c1ccccc1)c1nc(N)nc(-c2noc(N3C[C@@H]4[C@@H](COCC(F)(F)F)[C@@H]4C3)n2)n1 [Example 387, 2-N-methyl-2-N-phenyl-6-{5-[6-[(2,2,2-trifluoroethoxy)methyl]-3-azabicyclo[3.1.0]hexan-3-yl]-1,2,4-oxadiazol-3-yl}-1,3,5-triazine-2,4-diamine]",1420
4,"CN(c1ccccc1)c1nc(N)nc(-c2noc(N3CCN(S(=O)(=O)CC(F)(F)F)CC3)n2)n1 [Example 389, 2-N-methyl-2-N-phenyl-6-(5-{4-[(2,2,2-trifluoroethane)sulfonyl]piperazin-1-yl}-1,2,4-oxadiazol-3-yl)-1,3,5-triazine-2,4-diamine]",5990
5,"Nc1nc(Nc2ccccc2)nc(-c2noc(N3C[C@@H]4[C@@H](COCC(F)(F)F)[C@@H]4C3)n2)n1 [Example 390, 2-N-phenyl-6-{5-[6-[(2,2,2-trifluoroethoxy)methyl]-3-azabicyclo[3.1.0]hexan-3-yl]-1,2,4-oxadiazol-3-yl}-1,3,5-triazine-2,4-diamine]",702
6,"CN(c1ccccc1)c1nc(N)nc(-c2noc(N3CC4C(COc5ccccc5)C4C3)n2)n1 (centres unmarked) [Example 391, 2-N-methyl-6-{5-[6-(phenoxymethyl)-3-azabicyclo[3.1.0]hexan-3-yl]-1,2,4-oxadiazol-3-yl}-2-N-phenyl-1,3,5-triazine-2,4-diamine]",539
7,"Nc1nc(Nc2ccccc2)nc(-c2noc(N3C[C@@H]4[C@@H](COCC5CC5)[C@@H]4C3)n2)n1 [Example 393, 6-{5-[6-[(cyclopropylmethoxy)methyl]-3-azabicyclo[3.1.0]hexan-3-yl]-1,2,4-oxadiazol-3-yl}-2-N-phenyl-1,3,5-triazine-2,4-diamine]",884
8,"Nc1nc(Nc2ccccc2)nc(-c2noc(N3C[C@@H]4[C@@H](COCCC(F)(F)F)[C@@H]4C3)n2)n1 [Example 394, 2-N-phenyl-6-{5-[6-[(3,3,3-trifluoropropoxy)methyl]-3-azabicyclo[3.1.0]hexan-3-yl]-1,2,4-oxadiazol-3-yl}-1,3,5-triazine-2,4-diamine]",664
9,"CN(c1ccccc1)c1nc(N)nc(-c2noc(N3C[C@@H]4[C@@H](COCCC(F)(F)F)[C@@H]4C3)n2)n1 [Example 396, 2-N-methyl-2-N-phenyl-6-{5-[6-[(3,3,3-trifluoropropoxy)methyl]-3-azabicyclo[3.1.0]hexan-3-yl]-1,2,4-oxadiazol-3-yl}-1,3,5-triazine-2,4-diamine]",1130
10,"CN(c1ccccc1)c1nc(N)nc(-c2noc(N3C[C@@H]4[C@@H](COC5CCCC5)[C@@H]4C3)n2)n1 [Example 399, 6-{5-[6-[(cyclopentyloxy)methyl]-3-azabicyclo[3.1.0]hexan-3-yl]-1,2,4-oxadiazol-3-yl}-2-N-methyl-2-N-phenyl-1,3,5-triazine-2,4-diamine]",620
11,"Nc1nc(Nc2ccccc2)nc(-c2noc(N3C[C@@H]4[C@@H](COC5CCCC5)[C@@H]4C3)n2)n1 [Example 400, 6-{5-[6-[(cyclopentyloxy)methyl]-3-azabicyclo[3.1.0]hexan-3-yl]-1,2,4-oxadiazol-3-yl}-2-N-phenyl-1,3,5-triazine-2,4-diamine]",292
12,"CN(c1ccccc1)c1nc(N)nc(-c2noc(C(=O)N3C[C@@H]4[C@@H](COCCC(F)(F)F)[C@@H]4C3)n2)n1 [Example 403, 2-N-methyl-2-N-phenyl-6-(5-{[-6-[(3,3,3-trifluoropropoxy)methyl]-3-azabicyclo[3.1.0]hexan-3-yl]carbonyl}-1,2,4-oxadiazol-3-yl)-1,3,5-triazine-2,4-diamine]",1290
13,"CN(c1ccccc1)c1nc(N)nc(-c2noc(C(=O)N3C[C@@H]4[C@@H](COC5CCCC5)[C@@H]4C3)n2)n1 [Example 405, 6-(5-{[-6-[(cyclopentyloxy)methyl]-3-azabicyclo[3.1.0]hexan-3-yl]carbonyl}-1,2,4-oxadiazol-3-yl)-2-N-methyl-2-N-phenyl-1,3,5-triazine-2,4-diamine]",1280
14,"CN(c1ccccc1)c1nc(N)nc(-c2noc(C(=O)N3C[C@@H]4[C@@H](COc5ccccc5)[C@@H]4C3)n2)n1 [Example 406, 2-N-methyl-6-(5-{[-6-(phenoxymethyl)-3-azabicyclo[3.1.0]hexan-3-yl]carbonyl}-1,2,4-oxadiazol-3-yl)-2-N-phenyl-1,3,5-triazine-2,4-diamine]",624

# Now from value to compound:
row,IC50 [nM],SMILES
1,399,"CN(c1ccccc1)c1nc(N)nc(-c2noc(-c3cccnc3C(=O)OCC3CC3)n2)n1 [Example 378, cyclopropylmethyl 3-(3-{4-amino-6-[methyl(phenyl)amino]-1,3,5-triazin-2-yl}-1,2,4-oxadiazol-5-yl)pyridine-2-carboxylate]"
2,386,"CN(c1ccccc1)c1nc(N)nc(-c2noc(-c3ncccc3C(=O)OC3CCCC3)n2)n1 [Example 379, cyclopentyl 2-(3-{4-amino-6-[methyl(phenyl)amino]-1,3,5-triazin-2-yl}-1,2,4-oxadiazol-5-yl)pyridine-3-carboxylate]"
3,83,"CN(c1ccccc1)c1nc(N)nc(-c2noc(-c3cccnc3C(=O)OC3CCCC3)n2)n1 [Example 380, cyclopentyl 3-(3-{4-amino-6-[methyl(phenyl)amino]-1,3,5-triazin-2-yl}-1,2,4-oxadiazol-5-yl)pyridine-2-carboxylate]"
4,4930,"CN(c1ccccc1)c1nc(N)nc(-c2noc(-c3ncccc3C(=O)NCC(F)(F)F)n2)n1 [Example 381, 2-(3-{4-amino-6-[methyl(phenyl)amino]-1,3,5-triazin-2-yl}-1,2,4-oxadiazol-5-yl)-N-(2,2,2-trifluoroethyl)pyridine-3-carboxamide]"
5,4810,"CN(c1ccccc1)c1nc(N)nc(-c2noc(C3CN(C(=O)OC(C)(C)C)C3)n2)n1 [Example 382, tert-butyl 3-(3-{4-amino-6-[methyl(phenyl]amino]-1,3,5-triazin-2-yl}-1,2,4-oxadiazol-5-yl)azetidine-1-carboxylate]"
6,1540,"CN(c1ccccc1)c1nc(N)nc(-c2noc(C3CN(Cc4ccccc4)C3)n2)n1 [Example 383, 6-[5-(1-benzylazetidin-3-yl)-1,2,4-oxadiazol-3-yl]-2-N-methyl-2-N-phenyl-1,3,5-triazine-2,4-diamine]"
7,> 9980,"CN(c1ccccc1)c1nc(N)nc(-c2noc([C@H]3[C@@H]4C(=O)N(Cc5ccccc5)C(=O)[C@@H]43)n2)n1 [Example 386, (1R,5S,6S)-6-(3-{4-Amino-6-[methyl(phenyl)amino]-1,3,5-triazin-2-yl}-1,2,4-oxadiazol-5-yl)-3-benzyl-3-azabicyclo[3.1.0]hexane-2,4-dione]"
8,2810,"CN(c1ccccc1)c1nc(N)nc(-c2noc(N3CCN(S(=O)(=O)N(C)C)CC3)n2)n1 [Example 388, 4-(3-{4-amino-6-[methyl(phenyl)amino]-1,3,5-triazin-2-yl}-1,2,4-oxadiazol-5-yl)-N,N-dimethylpiperazine-1-sulfonamide]"
9,433,"Nc1nc(Nc2ccccc2)nc(-c2noc(N3CC4C(COc5ccccc5)C4C3)n2)n1 (centres unmarked) [Example 392, 6-{5-[6-(phenoxymethyl)-3-azabicyclo[3.1.0]hexan-3-yl]-1,2,4-oxadiazol-3-yl}-2-N-phenyl-1,3,5-triazine-2,4-diamine]"
10,2660,"CN(c1ccccc1)c1nc(N)nc(-c2noc(N3C[C@@H]4[C@@H](COCC5CC5)[C@@H]4C3)n2)n1 [Example 395, 6-{5-[6-[(cyclopropylmethoxy)methyl]-3-azabicyclo[3.1.0]hexan-3-yl]-1,2,4-oxadiazol-3-yl}-2-N-methyl-2-N-phenyl-1,3,5-triazine-2,4-diamine]"
11,3940,"CC(C)OC[C@@H]1[C@H]2CN(c3nc(-c4nc(N)nc(N(C)c5ccccc5)n4)no3)C[C@@H]12 [Example 397, 2-N-methyl-2-N-phenyl-6-{5-[6-[(propan-2-yloxy)methyl]-3-azabicyclo[3.1.0]hexan-3-yl]-1,2,4-oxadiazol-3-yl}-1,3,5-triazine-2,4-diamine]"
12,691,"CC(C)OC[C@@H]1[C@H]2CN(c3nc(-c4nc(N)nc(Nc5ccccc5)n4)no3)C[C@@H]12 [Example 398, 2-N-phenyl-6-{5-[(1R,5S,6S)-6-[(propan-2-yloxy)methyl]-3-azabicyclo[3.1.0]hexan-3-yl]-1,2,4-oxadiazol-3-yl}-1,3,5-triazine-2,4-diamine]"
13,1040,"CN(c1ccccc1)c1nc(N)nc(-c2noc(C(=O)N3CCC(CSCC(F)(F)F)CC3)n2)n1 [Example 401, 2-N-Methyl-2-N-phenyl-6-{5-[(4-{[(2,2,2-trifluoroethyl)sulfanyl]methyl}piperidin-1-yl)carbonyl]-1,2,4-oxadiazol-3-yl}-1,3,5-triazine-2,4-diamine]"
14,3970,"CN(c1ccccc1)c1nc(N)nc(-c2noc(C(=O)N3C[C@@H]4[C@@H](COCC(F)(F)F)[C@@H]4C3)n2)n1 [Example 402, 2-N-methyl-2-N-phenyl-6-(5-{[-6-[(2,2,2-trifluoroethoxy)methyl]-3-azabicyclo[3.1.0]hexan-3-yl]carbonyl}-1,2,4-oxadiazol-3-yl)-1,3,5-triazine-2,4-diamine]"
15,3460,"CN(c1ccccc1)c1nc(N)nc(-c2noc(C(=O)N3C[C@@H]4[C@@H](COCC5CC5)[C@@H]4C3)n2)n1 [Example 404, 6-(5-{[-6-[(cyclopropylmethoxy)methyl]-3-azabicyclo[3.1.0]hexan-3-yl]carbonyl}-1,2,4-oxadiazol-3-yl)-2-N-methyl-2-N-phenyl-1,3,5-triazine-2,4-diamine]"

# From patent US8895733B2 (Novartis AG, priority 2010, dated 2014)
